{
  "source": "paper PMC9144278",
  "about": "“Inclusion of a Phytomedicinal Flavonoid in Biocompatible Surface-Modified Chylomicron Mimic Nanovesicles with Improved Oral Bioavailability and Virucidal Activity: Molecular Modeling and Pharmacodynamic Studies” (Pharmaceutics, 2022)",
  "key": {"[1]": {"assay": "Pharmacokinetic study after oral administration", "settings": "rat"}, "[2]": {"system": "MERS-related coronavirus isolate NRCE-HKU270", "assay": "microbe, parasite or virus in culture", "assay_type": "cell-based, MERS-CoV"}, "[3]": {"system": "IFN-γ, TNF-α, IL-6, IL-4, SOD in BALF", "set-up": "species or system C57BL/6 mice", "settings": "mouse, in vivo, po, 10 mg/kg"}, "[4]": {"system": "myeloperoxidase (MPO) and NF-κB", "set-up": "species or system C57BL/6 mice", "settings": "mouse, in vivo"}, "MERS-CoV": {"system": "MERS-CoV", "assay_type": "in vivo, C57BL/6 mice", "settings": "oral 10 mg/kg once daily"}, "[5]": {"assay": "Particle size, zeta potential and PDI by Zetasizer (dynamic laser scattering)", "assay_type": "physicochemical", "method": "The MH-charged PCMs (0.10 mL) were admixed with distilled water (10.0 mL) in a glass culture tube and vortexed for 5 min. The particle sizes and their scattering surrounding the mean (including those of the pure-MH dispersion, shown in Supplementary Materials Figure S1) were determined at 25 °C using dynamic laser scattering with a 45 mm focus lens and a beam length of 2.4 mm. The same instrument was utilized for the ZP measurements of the electrophoretic mobility of the particles in the electric field."}, "[6]": {"assay": "Ex vivo drug gut-permeation study, noneverted gut sac technique", "assay_type": "in vitro ADME, male Wistar rats", "settings": "rat intestine", "method": "A comparative ex vivo intestinal transport study between the drug suspension and the optimized formula was conducted using the noneverted gut sac technique. […] The small intestine from each animal was then excised and sliced into sections 5 cm in length. The sections were then rinsed using normal saline. Krebs–Ringer solution (~2 mL) was utilized to irrigate the intestinal segments, followed by sac formation by closing the lower portion of the segments using a thread. Each sac was filled with a sample of the pure MH suspension (estimated to comprise 5.0 mg of MH) or with the optimized F9 formulation (estimated to comprise 5.0 mg of MH). Finally, each sac was allocated in an organ path packed with 50 mL of Krebs–Ringer solution after the lower portion of each sac was tightly sealed with a thread. […] CO2 mixture. […] To maintain a constant total volume, the organ path was compensated by the addition of equal volumes of fresh Krebs–Ringer solution after each sample for analysis had been withdrawn. The amounts of MH that had permeated through the intestinal segment were determined via HPLC using a Hitachi LaChrom Elite instrument equipped with a Model Series L-2000 organizer box, L-2300 column oven, L-2130 pump with built in degasser, Rheodyne 7725i injector with a […], and a L-2455 photodiode array detector (PAD). […]"}, "lung tissue": {"system": "lung tissue", "set-up": "species or system C57BL/6 mice", "settings": "mouse, in vivo"}, "Vero E6 cells": {"system": "Vero E6 cells", "assay": "MTT cytotoxicity assay (TC50)", "assay_type": "cell-based, African green monkey", "settings": "24 h", "method": "Dulbecco’s Modified Eagle’s Medium (DMEM) was utilized for sample dilutions. The stock solutions of the investigated formulations were employed as solutions in 10% DMSO in double-distilled H2O. Cells were harvested in 96-well plates (100-µL/well at a density of 3 × 10^5 cells/mL) and were incubated for 24 h at 37 °C in 5% CO2. Afterwards, various amounts of the investigated compounds were added to the cells, and each experiment was performed in triplicate. After an extra 24 h, cell monolayers were dislodged from the supernatant and then rinsed 3 times with sterile phosphate buffer saline (PBS). MTT solution (20.0 µL of 5.00 mg/mL stock solution) was added into each well, and the cells were incubated for 4 h at 37 °C, followed by aspiration of the medium. […] The absorbances of the formazan solutions were assessed at λmax 540 vs. the 620 nm reference wavelength, using a multiwell plate reader. The cytotoxicity percentages related to the untreated cells were computed via GraphPad Prism software (version 7.01) using the following formula: %Cytotoxicity = (absorbance of cells without treatment − absorbance of cells with treatment) × 100 (absorbance of cells without treatment) […]"}, "[7]": {"settings": "cited from earlier work"}, "[8]": {"settings": "male, Wistar albino, in vivo, po, 20 mg/kg"}},
  "note": "Read-outs that look alike come from different tables or passages of the source.",
  "data": [
    {"smiles": "O=c1c(O)c(-c2ccc(O)cc2O)oc2cc(O)cc(O)c12", "note": "[MH, 2′,3,4′,5,7-pentahydroxyflavone]", "values": [
      {"measurement": "AUC(0-inf)", "setting": "[1]; [8]", "value": "77000 ± 22000", "unit": "ng·h/mL"},
      {"measurement": "Tmax", "setting": "[1]; [8]", "value": 2, "unit": "h"},
      {"measurement": "AUC(0-t)", "setting": "[1]; male, Wistar albino, in vivo, po, 20 mg/kg, AUC0–24, rat, 20 mg/kg MH, n = 6", "value": "56100 ± 16200", "unit": "ng·h/mL"},
      {"measurement": "Cmax", "setting": "[1]; male, Wistar albino, in vivo, po, 20 mg/kg, Cmax, 20 mg/kg MH, n = 6", "value": "4820 ± 840", "unit": "ng/mL"},
      {"measurement": "AUC0–24", "setting": "[1]; oral, 20 mg/kg MH, n = 6, listed as Morin Hydrate Dispersion", "value": "56000 ± 16000", "unit": "ng·h/mL"},
      {"measurement": "selectivity index (SI = CC50/EC50)", "setting": "[2]", "value": 19.4},
      {"measurement": "EC50", "setting": "[2]; Middle East respiratory syndrome-related coronavirus, Vero C1008, read-out: EC50 antiviral activity", "value": 0.13, "unit": "µg/mL"},
      {"measurement": "inhibition at 0.125 µg/mL", "setting": "[2]; Middle East respiratory syndrome-related coronavirus, Vero C1008, read-out: inhibition efficacy (viral plaques)", "value": 48, "unit": "%"},
      {"measurement": "IFN-γ level in BALF", "setting": "[3]", "value": "82.7 ± 7.51", "unit": "pg/mg protein"},
      {"measurement": "IL-4 level in BALF", "setting": "[3]", "value": "23.5 ± 2.10", "unit": "pg/mg protein"},
      {"measurement": "IL-6 level in BALF", "setting": "[3]", "value": "112.9 ± 14.6", "unit": "pg/mg protein"},
      {"measurement": "SOD level in BALF", "setting": "[3]", "value": "2.2 ± 0.35", "unit": "U/mg protein"},
      {"measurement": "TNF-α level in BALF", "setting": "[3]", "value": "57.4 ± 6.2", "unit": "pg/mg protein"},
      {"measurement": "effect on MPO and NF-κB protein expression in lung", "setting": "[4]", "value": "markedly suppressed the protein expression compared with the infected group"},
      {"measurement": "% plaque prohibition in lung homogenate", "setting": "MERS-CoV; after 3 d postinfection", "value": 27.1, "unit": "%"},
      {"measurement": "% plaque prohibition in lung homogenate", "setting": "MERS-CoV; after 6 d postinfection", "value": 44.8, "unit": "%"},
      {"measurement": "particle sizes of MH dispersion", "setting": "[5]; MH dispersion in PBS used for oral dosing", "value": "672.3 ± 32.1"},
      {"measurement": "PDI polydispersity index", "setting": "[5]; mean ± SD (n = 3)", "value": "0.576 ± 0.1"},
      {"measurement": "Papp at 90 min", "setting": "[6]; male, Wistar, read-out: apparent permeability coefficient (APC) (converted)", "value": 2.53, "unit": "×10⁻⁶ cm/s"},
      {"measurement": "flux (Jmax)", "setting": "[6]; after 90 min", "value": "0.37 ± 0.018", "unit": "μg/cm^2/min"},
      {"measurement": "effect on lung pathological alterations", "setting": "lung tissue", "value": "marked suppression in all of those alterations"},
      {"measurement": "concentration for 50% cell cytotoxicity (TC50)", "setting": "Vero E6 cells", "value": 2.53, "unit": "µg/mL"}
    ]},
    {"smiles": "NC(=O)N1c2ccccc2CC(=O)c2ccccc21", "note": "[oxycarbazepine]", "values": [
      {"measurement": "pKa", "setting": "[7]", "value": 10.7}
    ]}
  ]
}
